Measured values reported in patent US20040014672A1, “Novel crystalline form of 6-hydroxy-3-(4-[2-(piperidin-1-yl)ethoxy]phenoxy)-2-(4-methoxyphenyl)benzo[b]thiophene hydrochloride” (priority 2003, published 2004).

Key:
Assay type in all cases: physicochemical
[1] = Moisture sorption/desorption isotherm; details: over the range of 0-95% RH, 25° C.
Description: It is most commonly used to study to study desolvation processes and quantatively determine the total volatile content of a solid. DSC is a technique that is often used to screen compounds for polymorphism because the temperatures(s) at which a physical change in a material occurs is usually characteristic of that material. Moisture sorption isotherms provide evaluation of the degree of hydroscopicity associated with a given material and characterization of non-hydrates and hydrates. Lastly, XRD is a technique that detects long-range order in a crystalline material. Moisture Sorption Isotherms were generated using a VTI SGA-100 flow instrument. The samples were analyzed at 25° C. from 0-95% relative humidity (RH) for adsorption and from 95-5% RH for desorption in steps of 5% RH. The adsorption and desorption isotherms were generated as a graph of the % weight change vs. % RH.

[2] = Aqueous solubility
[3] = Variable temperature X-ray powder diffraction (crystal form stability); details: up to 125° C., increments of 25° C.
Procedure: Variable temperature X-ray powder diffraction patterns were obtained on a Siemens D5000 X-ray powder diffractometer which was equipped with a CuKα source (λ=1.54056) operated at 50 kV and 40 mA with a scintillation detector and nickel filter. The powder was packed into a top-loading, recessed temperature controlled holder and a smooth surface was obtained for diffraction. The sample was scanned from 2 to 35° 2θ at 2.5 seconds per step size of 0.04° beginning at 25° C. after an equilibration time of 5 minutes. Subsequent scans were obtained at increasing temperature increments of 25° C. to a maximum of 125° C.

- weight increase in moisture sorption/desorption isotherm [1]: 0.11%
- higher aqueous solubility relative to F-III [2]: ~10%
- change in the diffraction pattern on heating [3]: no significant change
SMILES: COc1ccc(-c2sc3cc(O)ccc3c2Oc2ccc(OCCN3CCCCC3)cc2)cc1.Cl [F-V, 6-hydroxy-3-(4-[2-(piperidin-1-yl)ethoxy]phenoxy)-2-(4-methoxyphenyl)benzo[b]thiophene hydrochloride]
